8 compounds from PubChem BioAssay (NCI) can be followed below.

Among the test systems are ACHN renal; DU-145 prostate; M14 melanoma; MDA-MB-231 breast; MOLT-4 leukemia; OVCAR-8 ovarian; SF-539 CNS; SN12C renal; SNB-75 CNS; SW-620 colon.
Holding throughout (experiment): inhibition of tumour cell growth, NCI panel, 48 h

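Step 1: Grow cells in 96-well plates. Step 2: Expose to compound for 48 hours at 5 concentrations. Step 3: Interpolate endpoints linearly; if unreached, use highest concentration. GI50 is the concentration that inhibits growth by half. The concentration for full growth arrest is given as TGI.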

As to `CCOc1cccc(-c2nc(N)nc(Nc3ccccc3SSc3ccccc3Nc3nc(N)nc(-c4cccc(OCC)c4)n3)n2)c1`, the GI50 was 2.14 µM in the assay on ACHN renal; 7.5 µM with DU-145 prostate; 4.1 µM in the assay with M14 melanoma; 3.72 µM in the assay on MDA-MB-231 breast; 2.61 µM in the assay with MOLT-4 leukemia; 4.43 µM with OVCAR-8 ovarian. Further, the GI50 in the assay on SF-539 CNS is 9.2 µM; in the assay on SN12C renal it was 2.32 µM; with SNB-75 CNS, greater than 100 µM; with SW-620 colon, 4.56 µM. In addition, the TGI in the assay with ACHN renal was 5.8 µM; in the assay with DU-145 prostate it was greater than 100 µM; with M14 melanoma it was greater than 100 µM; with MDA-MB-231 breast it was 27 µM; in the assay on MOLT-4 leukemia, greater than 100 µM; in the assay on OVCAR-8 ovarian, greater than 100 µM. For the same compound, the TGI is greater than 100 µM in the assay with SF-539 CNS, 14.8 µM in the assay on SN12C renal, greater than 100 µM with SNB-75 CNS and greater than 100 µM with SW-620 colon.
Consider `CC(=O)Nc1ccc(COC(O)CN2CCCCC2)cc1[N+](=O)[O-]` (stereo not given), for which the TGI with ACHN renal, with DU-145 prostate, with M14 melanoma, in the assay with MDA-MB-231 breast, in the assay with MOLT-4 leukemia and with OVCAR-8 ovarian was greater than 100 µM in each case. Besides, the TGI with SF-539 CNS, with SN12C renal, with SNB-75 CNS and in the assay with SW-620 colon was greater than 100 µM each time.
As to `CC(=O)N1N=C2/C(=C/c3ccc(Cl)cc3)CC(C)CC2C1c1ccc(Cl)cc1` (stereo not given), the GI50 is 33.2 µM in the assay on ACHN renal; 30.5 µM with DU-145 prostate; 17.7 µM in the assay with M14 melanoma; 18.1 µM in the assay on MDA-MB-231 breast; 11.6 µM in the assay on MOLT-4 leukemia; 24.9 µM with OVCAR-8 ovarian. The GI50 was 19.1 µM in the assay with SF-539 CNS, 19.9 µM in the assay on SN12C renal, 18.4 µM with SNB-75 CNS and 19.3 µM with SW-620 colon. For the same compound, the TGI in the assay with ACHN renal is greater than 100 µM; in the assay on DU-145 prostate, greater than 100 µM; in the assay with M14 melanoma, 35.3 µM; in the assay on MDA-MB-231 breast it was 52.6 µM; in the assay with MOLT-4 leukemia, 39.3 µM; in the assay on OVCAR-8 ovarian it was greater than 100 µM. The TGI with SF-539 CNS was found to be 38 µM; with SN12C renal it was 40.4 µM; in the assay on SNB-75 CNS it was 65.3 µM; in the assay on SW-620 colon, 57.7 µM.
`CC(C)(C)c1c2c(c(C(C)(C)C)c3c1OCN(Cc1ccccc1)C3)OCN(Cc1ccccc1)C2`: the TGI in the assay on ACHN renal is 51.1 µM; in the assay with DU-145 prostate, 59.7 µM; in the assay on M14 melanoma it was 29 µM; in the assay with MDA-MB-231 breast, 29.3 µM; in the assay with MOLT-4 leukemia it was 50.4 µM; in the assay on OVCAR-8 ovarian, 77.3 µM. Moreover, the TGI was 31 µM with SF-539 CNS, 34.9 µM in the assay with SN12C renal, greater than 100 µM in the assay with SNB-75 CNS and greater than 100 µM with SW-620 colon.
`CN(Cc1cc(Cl)cc(Cl)c1O)Cc1c(O)ccc2ccccc12`: the TGI stood at 31 µM in the assay with ACHN renal; 46.2 µM in the assay on DU-145 prostate; 39.2 µM in the assay with M14 melanoma; 32.2 µM with MDA-MB-231 breast; 58.3 µM in the assay with MOLT-4 leukemia; 39.2 µM in the assay with OVCAR-8 ovarian. The TGI is 38.5 µM in the assay with SF-539 CNS, 43.7 µM with SN12C renal, 33.3 µM in the assay with SNB-75 CNS and greater than 100 µM in the assay on SW-620 colon.
In the case of `O=C(Nc1ccccc1)c1cc(S(=O)(=O)Nc2nc3ccccc3o2)c(SCc2ccccc2)cc1Cl`, the GI50 was 18.2 µM in the assay on ACHN renal; 16.5 µM with DU-145 prostate; 20.6 µM in the assay on M14 melanoma; 18.3 µM in the assay on MDA-MB-231 breast; 13.3 µM in the assay with MOLT-4 leukemia; 24.5 µM with OVCAR-8 ovarian. For the same compound, the GI50 in the assay with SF-539 CNS was 15.8 µM; in the assay on SN12C renal, 20.3 µM; with SNB-75 CNS, 25.3 µM; in the assay on SW-620 colon, 17.1 µM. Moreover, the TGI with ACHN renal came to 37 µM; with DU-145 prostate, 32.4 µM; in the assay on M14 melanoma, 38.6 µM; in the assay on MDA-MB-231 breast, 42.4 µM; in the assay on MOLT-4 leukemia it was 37.8 µM; with OVCAR-8 ovarian it was 65 µM. For the same compound, the TGI was found to be 31.1 µM in the assay on SF-539 CNS, 46.2 µM in the assay with SN12C renal, 66.9 µM in the assay with SNB-75 CNS and 37.7 µM in the assay on SW-620 colon.
On to `Oc1cc2ccccc2c(-c2c(O)c(O)cc3ccccc23)c1O`, for which the GI50 with ACHN renal is 0.571 µM; with DU-145 prostate, 2.29 µM; in the assay on M14 melanoma, 1.4 µM; in the assay on MDA-MB-231 breast, 4.64 µM; with MOLT-4 leukemia, 0.897 µM; with OVCAR-8 ovarian it was 2.16 µM. In addition, the GI50 was 1.68 µM with SF-539 CNS, 1.99 µM with SN12C renal, 2.23 µM in the assay with SNB-75 CNS and 3.49 µM with SW-620 colon. For the same compound, the TGI in the assay on ACHN renal was 21.1 µM; in the assay with DU-145 prostate, 15.4 µM; with M14 melanoma it was 11.4 µM; in the assay on MDA-MB-231 breast, 34.2 µM; in the assay with MOLT-4 leukemia it was 18.7 µM; with OVCAR-8 ovarian it was greater than 24 µM. Also, the TGI is 5.46 µM in the assay on SF-539 CNS, 15.8 µM in the assay with SN12C renal, 28.1 µM in the assay on SNB-75 CNS and 26.9 µM in the assay on SW-620 colon.
As for `Cn1cc(C2=C(c3cn(C)c4ccccc34)C(=O)NC2=O)c2ccccc21`, the GI50 was 2.25 µM in the assay on ACHN renal; 1.66 µM with DU-145 prostate; 1.9 µM in the assay on M14 melanoma; greater than 23.5 µM with MDA-MB-231 breast; 4.81 µM in the assay on MOLT-4 leukemia; 2.96 µM in the assay with OVCAR-8 ovarian. For the same compound, the GI50 in the assay on SF-539 CNS is 0.738 µM; with SN12C renal, 3.47 µM; with SNB-75 CNS it was 0.306 µM; in the assay with SW-620 colon, 0.88 µM. The TGI with ACHN renal, with DU-145 prostate, in the assay with M14 melanoma, in the assay with MDA-MB-231 breast, with MOLT-4 leukemia and in the assay with OVCAR-8 ovarian was greater than 25 µM each time. Also, the TGI was 5.25 µM with SF-539 CNS, greater than 25 µM in the assay with SN12C renal, 1.64 µM in the assay on SNB-75 CNS and greater than 25 µM in the assay with SW-620 colon.
